Results reported in the NIST ThermoML archive (doi:10.1021/je034102r).

Assay: molar heat capacity at saturation pressure
Details: Small (less than 1 g) adiabatic calorimetry

CCCCn1cc[n+](C)c1.F[P-](F)(F)(F)(F)F [1-butyl-3-methylimidazolium hexafluorophosphate]
Details	molar heat capacity [J/K/mol]
5 K, Crystal	1.007
5 K, Glass	1.946
5.09 K, Glass	2.049
5.13 K, Crystal	1.065
5.36 K, Glass	2.336
5.41 K, Crystal	1.231
5.59 K, Glass	2.627
5.67 K, Crystal	1.405
5.85 K, Glass	2.997
5.97 K, Crystal	1.625
6.14 K, Glass	3.411
6.29 K, Crystal	1.927
6.47 K, Glass	3.839
6.6 K, Crystal	2.264
6.82 K, Glass	4.454
6.91 K, Crystal	2.566
7.15 K, Glass	4.943
7.23 K, Crystal	2.994
7.49 K, Glass	5.596
7.58 K, Crystal	3.435
7.84 K, Glass	6.275
7.92 K, Crystal	3.848
8.21 K, Glass	6.958
8.28 K, Crystal	4.395
8.61 K, Glass	7.772
8.66 K, Crystal	4.99
9 K, Glass	8.63
9.07 K, Crystal	5.739
9.41 K, Glass	9.587
9.49 K, Crystal	6.479
9.82 K, Glass	10.46
9.92 K, Crystal	7.352
10 K, Crystal	7.487
10 K, Glass	10.93
10.27 K, Glass	11.64
10.35 K, Crystal	8.195
10.75 K, Crystal	9.005
10.76 K, Glass	12.74
11.18 K, Crystal	10.04
11.23 K, Glass	14.01
11.74 K, Crystal	11.29
11.74 K, Glass	15.2
12.29 K, Glass	16.65
12.32 K, Crystal	12.57
12.81 K, Glass	18.03
12.92 K, Crystal	14.08
13.36 K, Glass	19.55
13.56 K, Crystal	15.72
13.99 K, Glass	21.2
14.2 K, Crystal	17.26
14.65 K, Glass	23.01
14.85 K, Crystal	19.06
15 K, Crystal	19.41
15 K, Glass	23.95
15.35 K, Glass	24.94
15.51 K, Crystal	20.76
16.07 K, Glass	26.85
16.24 K, Crystal	22.77
16.81 K, Glass	28.88
17 K, Crystal	24.84
17.63 K, Glass	31.14
17.78 K, Crystal	26.97
18.5 K, Glass	33.53
18.66 K, Crystal	29.5
19.36 K, Glass	35.93
19.54 K, Crystal	32.1
20 K, Crystal	33.34
20 K, Glass	37.71
20.17 K, Glass	38.13
20.45 K, Crystal	34.73
21.05 K, Glass	40.62
21.38 K, Crystal	37.23
22.07 K, Glass	43.51
22.32 K, Crystal	39.8
23.08 K, Glass	46.05
23.31 K, Crystal	42.57
24.15 K, Glass	49.07
24.37 K, Crystal	45.56
25 K, Crystal	47.15
25 K, Glass	51.23
25.25 K, Glass	51.82
25.51 K, Crystal	48.5
26.28 K, Glass	54.6
26.64 K, Crystal	51.23
27.38 K, Glass	57.25
27.83 K, Crystal	54.25
28.63 K, Glass	60.1
29.06 K, Crystal	57.36
29.99 K, Glass	63.37
30 K, Crystal	59.6
30 K, Glass	63.41
30.21 K, Crystal	60.16
31.43 K, Glass	66.52
31.51 K, Crystal	63.15
32.95 K, Glass	70.07
32.97 K, Crystal	66.37
34.47 K, Crystal	69.5
34.52 K, Glass	73.45
35 K, Crystal	70.66
35 K, Glass	74.31
36.07 K, Crystal	72.74
36.17 K, Glass	76.76
37.71 K, Crystal	76.12
37.88 K, Glass	79.79
39.38 K, Crystal	79.31
39.66 K, Glass	83.48
40 K, Crystal	80.48
40 K, Glass	83.89
41.07 K, Crystal	82.46
41.55 K, Glass	86.89
42.76 K, Crystal	85.47
43.54 K, Glass	90.3
44.47 K, Crystal	88.38
45 K, Crystal	89.21
45 K, Glass	92.46
45.53 K, Glass	93.29
46.22 K, Crystal	91.38
47.48 K, Glass	96.53
48 K, Crystal	93.87
49.44 K, Glass	99.69
49.81 K, Crystal	96.36
50 K, Crystal	96.95
50 K, Glass	100.6
51.38 K, Glass	102.7
51.62 K, Crystal	99.36
53.34 K, Glass	105.7
53.48 K, Crystal	101.9
55.43 K, Glass	108.8
55.49 K, Crystal	104.4
57.6 K, Glass	111.9
57.62 K, Crystal	106.9
59.71 K, Crystal	109.9
59.75 K, Glass	114.9
60 K, Crystal	110.2
60 K, Glass	115.6
61.89 K, Crystal	112.3
61.89 K, Glass	117.8
64.01 K, Glass	121.6
64.13 K, Crystal	115.1
66.11 K, Glass	123.9
66.36 K, Crystal	118.1
68.19 K, Glass	127.2
68.68 K, Crystal	120.7
70 K, Crystal	122
70 K, Glass	129.2
70.41 K, Glass	130
71.13 K, Crystal	123.1
72.69 K, Glass	132.8
73.64 K, Crystal	125.8
75.03 K, Glass	135.6
76.05 K, Crystal	128.6
77.42 K, Glass	138.4
78.39 K, Crystal	130.8
79.89 K, Glass	142.1
80 K, Crystal	132.7
80 K, Glass	141.8
80.75 K, Crystal	133.5
82.45 K, Glass	144.5
83.19 K, Crystal	136
84.93 K, Glass	147.7
85.74 K, Crystal	138.7
87.39 K, Glass	150.3
88.31 K, Crystal	141.4
89.83 K, Glass	153.7
90 K, Crystal	142.9
90 K, Glass	154.1
90.82 K, Crystal	143.8
92.25 K, Glass	157.1
93.26 K, Crystal	146.3
95.42 K, Glass	160.5
95.87 K, Crystal	149.1
97.92 K, Glass	163.5
98.65 K, Crystal	151.7
100 K, Crystal	153.2
100 K, Glass	166
100.28 K, Crystal	153.6
100.38 K, Glass	166.5
100.78 K, Glass	167.5
101.35 K, Crystal	154.9
102.77 K, Crystal	156.1
103.17 K, Glass	170
105.21 K, Crystal	158.5
105.51 K, Glass	172.9
107.6 K, Crystal	160.8
107.81 K, Glass	175.4
110 K, Crystal	163.1
110 K, Glass	177.9
110.06 K, Glass	177.9
110.13 K, Crystal	163.1
112.28 K, Glass	180.3
112.77 K, Crystal	165.8
114.54 K, Glass	183.2
115.37 K, Crystal	168.1
116.84 K, Glass	185.7
117.92 K, Crystal	170.7
119.11 K, Glass	188.2
120 K, Crystal	172.9
120 K, Glass	189.1
120.6 K, Crystal	173.4
121.35 K, Glass	190.5
123.41 K, Crystal	176.3
123.71 K, Glass	193.2
126.17 K, Crystal	178.9
126.2 K, Glass	195.8
128.66 K, Glass	198.4
128.89 K, Crystal	181.8
130 K, Crystal	182.8
130 K, Glass	200
131.16 K, Glass	201.3
131.56 K, Crystal	184.6
133.7 K, Glass	204.1
134.28 K, Crystal	187.2
136.2 K, Glass	207.1
137.03 K, Crystal	190.2
138.67 K, Glass	209.8
139.75 K, Crystal	193
140 K, Crystal	193.1
140 K, Glass	211
141.19 K, Glass	212.4
142.43 K, Crystal	195.6
143.75 K, Glass	215.3
145.07 K, Crystal	198.5
146.28 K, Glass	217.9
147.68 K, Crystal	201.1
148.93 K, Glass	220.9
150 K, Crystal	203.7
150 K, Glass	222.2
150.26 K, Crystal	204.1
151.7 K, Glass	224.2
152.8 K, Crystal	206.7
154.44 K, Glass	226.9
155.32 K, Crystal	209.6
157.14 K, Glass	230.1
157.81 K, Crystal	212.4
159.81 K, Glass	233.2
160 K, Crystal	214.6
160 K, Glass	233.6
160.34 K, Crystal	214.8
162.53 K, Glass	236.6
162.92 K, Crystal	217.8
165.29 K, Glass	239.8
165.46 K, Crystal	220.6
168.02 K, Glass	243.1
168.07 K, Crystal	223.6
170 K, Crystal	225.7
170 K, Glass	245.7
170.71 K, Crystal	226.4
170.72 K, Glass	246.4
173.34 K, Crystal	229.6
173.39 K, Glass	249.7
175.93 K, Crystal	232.7
176.04 K, Glass	253
177.26 K, Glass	254.8
178.5 K, Crystal	235.4
180 K, Crystal	237.2
180 K, Glass	258.1
180.15 K, Glass	258.7
181.04 K, Crystal	238.3
183.09 K, Glass	263.9
183.56 K, Crystal	241.2
186.06 K, Crystal	244.3
186.06 K, Glass	273
188.53 K, Crystal	247.2
188.97 K, Glass	285
190 K, Crystal	248.8
190 K, Glass	270.5
190.6 K, Glass	271.2
190.6 K, Liquid	352.9
190.98 K, Crystal	249.9
191.7 K, Glass	322.8
193.42 K, Crystal	252.8
194.24 K, Glass	351
194.81 K, Crystal	254.5
196.8 K, Liquid	355.5
197.49 K, Crystal	257.7
199.36 K, Liquid	356.4
200 K, Crystal	260.7
200 K, Liquid	356.9
200.29 K, Crystal	260.8
201.91 K, Liquid	357.9
203.07 K, Crystal	264.4
204.58 K, Liquid	359.1
205.82 K, Crystal	267.4
207.37 K, Liquid	360.1
208.72 K, Crystal	270.5
210 K, Crystal	272.2
210 K, Liquid	361.4
210.22 K, Liquid	361.4
211.76 K, Crystal	274.3
213.13 K, Liquid	363.4
214.78 K, Crystal	277.7
217.77 K, Crystal	280.9
220 K, Crystal	283.4
220 K, Liquid	366.1
220.73 K, Crystal	284.4
223.67 K, Crystal	287.4
226.59 K, Crystal	290.7
229.55 K, Crystal	293.6
230 K, Crystal	294.2
230 K, Liquid	370.9
232.58 K, Crystal	297.2
235.59 K, Crystal	300.4
238.56 K, Crystal	303.6
238.61 K, Liquid	375.5
240 K, Crystal	305.2
240 K, Liquid	376
240.98 K, Liquid	376.4
241.58 K, Crystal	307.1
243.49 K, Liquid	377.7
244.65 K, Crystal	310.8
246 K, Liquid	379.1
247.69 K, Crystal	313.5
248.49 K, Liquid	379.9
250 K, Crystal	316.7
250 K, Liquid	381.1
250.71 K, Crystal	316.9
250.97 K, Liquid	381.9
253.43 K, Liquid	382.8
253.7 K, Crystal	320.9
256.03 K, Liquid	384.1
256.67 K, Crystal	323.9
258.86 K, Liquid	386
259.68 K, Crystal	327.4
260 K, Crystal	328.2
260 K, Liquid	386.5
261.82 K, Liquid	387.4
262.73 K, Crystal	331.8
264.77 K, Liquid	388.5
265.76 K, Crystal	335.3
267.7 K, Liquid	390.6
268.75 K, Crystal	342
270 K, Crystal	339.6
270 K, Liquid	392.1
270.75 K, Liquid	392.9
273.92 K, Liquid	394.4
277.07 K, Liquid	396.2
279.27 K, Liquid	397.3
280 K, Crystal	351
280 K, Liquid	397.8
280.22 K, Liquid	397.8
282.28 K, Liquid	399.3
283.51 K, Crystal	355.1
283.51 K, Liquid	399.8
285.27 K, Liquid	401.1
288.25 K, Liquid	402.9
290 K, Liquid	403.8
290.53 K, Liquid	404.3
291.29 K, Liquid	404.5
293.21 K, Liquid	406.2
294.38 K, Liquid	406.7
296.25 K, Liquid	407.3
297.45 K, Liquid	409
298.15 K, Liquid	408.7
299.28 K, Liquid	409.7
300 K, Liquid	409.8
300.51 K, Liquid	409.8
302.31 K, Liquid	411.6
303.56 K, Liquid	411.8
305.32 K, Liquid	412.9
306.66 K, Liquid	414
308.31 K, Liquid	414.6
309.81 K, Liquid	416
310 K, Liquid	415.9
311.31 K, Liquid	416.3
320 K, Liquid	422.3
340 K, Liquid	434.7
360 K, Liquid	446.2
380 K, Liquid	457
400 K, Liquid	466.9
420 K, Liquid	476
440 K, Liquid	484.3
460 K, Liquid	491.8
480 K, Liquid	498.5
500 K, Liquid	504.4
520 K, Liquid	509.5
540 K, Liquid	513.8
550 K, Liquid	515.6
